In patent publication US20100183669A1, “Mannose immunogens for HIV-1” (University of Oxford, priority 2005, published 2010):

How the values were obtained:
2G12 [1] = test: 2G12 binding ELISA of self glycoproteins CD48 and RPTPmu expressed in HEK293T cells with kifunensine; conditions: glycoproteins expressed in HEK293T cells with 5 μM kifunensine, FIG. 4
Protocol: The aim of this study is to generate ‘self’ glycoproteins bearing oligomannose glycans which bind a 2G12 antibody and consequently display antigenic cross-reactivity with the HIV gp120. Two target glycoproteins, CD48 and Receptor Protein Tyrosine Phosphates mu (RPTPmu) were expressed in HEK293T cells in the presence of the mannosidase inhibitor kifunensine at 5 μM concentration. To verify that the mannosidase inhibitor was effective in producing glycoprotein containing oligomannose glycans, the glycans were released by digestion with protein N-glycanase F (PNGase F) and were then analysed by high-performance liquid chromatography (HPLC) and matrix assisted laser desorption/ionisation mass spectrometry (MALDI-MS).
The resulting glycoproteins containing oligomannose-type N-linked glycans were tested for 2G12 binding by ELISA (FIG. 4). Particularly, 15.6 μg of CD48, 2 μg, 1 μg and 0.4 μg of RPTPmu were plated and 1 μg of non-kifunensine treated IgG was plated as a negative control.

[2] = system: ER- and Golgi-resident class I α-mannosidases; conditions: relative to DMJ; cited from earlier work
2G12 [3] = test: Double antibody (b12/2G12) ELISA of gp120 captured with anti-gp120 antibody D7324; type: binding; conditions: gp120 produced with 5 μM kifunensine compared with double antibody ELISA of untreated gp120, FIG. 1 panel B
Source text: Binding of gp120, and measurement of b12/2G12 was again determined by phosphatase-conjugated anti-IgG secondary antibody.
(§1) BSA (x) was used in these experiments as a negative control.

monoclonal antibody 2G12 = test: 2G12 sandwich ELISA of gp120 from CHO cells grown with or without kifunensine; type: binding; conditions: for binding to the monoclonal antibody 2G12 in ELISA: gp120 produced in CHO cells in the presence of kifunensine, compared with absence
Protocol: To investigate the role of mannosidase inhibition, by kifunensine, on the formation of the 2G12 epitope, Chinese Hamster Ovary (CHO) cells, transfected with EE6HCMV gp120GS, secreting recombinant HIV-IIIB gp120, were cultured in CB2 DMEM Base culture medium supplemented with foetal calf serum (10%), penicillin (50 U/ml) and streptomycin (50 ^1g/ml). All reagents were obtained from Gibco Ltd, Uxbridge, UK. High expression of gp120 was maintained by the addition of methionine sulphoximine (200 nM). Cells were grown in the presence and absence kifunensine (see FIG. 1A, 1B).
Glycoproteins were immobilized on plastic protein-binding plates. For the first experiment (FIG. 1A) 2G12 (5 ug/ml) was coated onto plate, left overnight at 4° C. Plates were then blocked with Bovine Serum albumin (3% w/v) for one hour. Subsequently, supernatant from gp120IIIB expressing CHO cells (with or without kifunensine) was added for one hour, at room temperature. Plates were then washed 3 times in PBS. 2G12 (titration from 10 yg/ml) was then added. After washing 2g12 binding was determined by phosphatase-conjugated anti-IgG secondary antibody, a final wash step and then phosphatase substrate measurement (p-nitrophenylphosphate, absorbance at 405 nm).
as §1

Compound: RPTPmu: self glycoprotein expressed in HEK293T cells in the presence of 5 μM kifunensine, bearing oligomannose glycans
- 2G12 binding by ELISA (2G12 [1]): can bind to 2G12

Compound: O=C1N[C@@H]2[C@@H](O)[C@@H](O)[C@H](O)[C@@H](CO)N2C1=O [kifunensine]
- concentration to effect mannosidase inhibition, lower than DMJ [2]: 1000 fold

Compound: CD48: self glycoprotein expressed in HEK293T cells in the presence of 5 μM kifunensine, bearing oligomannose glycans
- 2G12 binding by ELISA (2G12 [1]): can bind to 2G12

Compound: kifunensine treated gp120: HIV-1IIIB gp120 glycoprotein produced in a CHO stable cell line in the presence of kifunensine
- distinct epitopes for 2G12 (2G12 [3]): two distinct epitopes
- number of 2G12 molecules able to bind to a single gp120 molecule (monoclonal antibody 2G12; gp120 expressed in the presence of kifunensine): at least two
- binding to the monoclonal antibody 2G12 in ELISA (monoclonal antibody 2G12; expressed in the presence of kifunensine): dramatically enhanced
- binding to the monoclonal antibody 2G12 in ELISA (monoclonal antibody 2G12; produced in the presence of kifunensine): higher binding
- additional 2G12 binding sites on each molecule of gp120 (monoclonal antibody 2G12; gp120 produced in the presence of kifunensine, two 2G12 ELISA binding assays): at least one additional 2G12 binding site
- proportion of gp120 molecules able to simultaneously bind two or more 2G12 antibody molecules (monoclonal antibody 2G12; sandwich ELISA, 0-5 μM kifunensine, FIG. 1 panel A): a higher proportion
